Experimental data published in patent US7998414B2, “System for high throughput GPCR functional assay” (priority 2007, dated 2011).

Biological target: T1, opioid receptor mu (OPRM) (Homo sapiens, UniProt P35372)
T1 construct: purchased Perkin-Elmer Life Science (Boston, Mass.)
Assay: Eu-GTP based functional assay on GPCR microarray on porous glass substrate
Type: biochemical
Settings: multiplexed array; Eu-GTP 10 nM, GDP 3 μM, 1 hour; FIG. 5E

T1 sequence (P35372 whole entry): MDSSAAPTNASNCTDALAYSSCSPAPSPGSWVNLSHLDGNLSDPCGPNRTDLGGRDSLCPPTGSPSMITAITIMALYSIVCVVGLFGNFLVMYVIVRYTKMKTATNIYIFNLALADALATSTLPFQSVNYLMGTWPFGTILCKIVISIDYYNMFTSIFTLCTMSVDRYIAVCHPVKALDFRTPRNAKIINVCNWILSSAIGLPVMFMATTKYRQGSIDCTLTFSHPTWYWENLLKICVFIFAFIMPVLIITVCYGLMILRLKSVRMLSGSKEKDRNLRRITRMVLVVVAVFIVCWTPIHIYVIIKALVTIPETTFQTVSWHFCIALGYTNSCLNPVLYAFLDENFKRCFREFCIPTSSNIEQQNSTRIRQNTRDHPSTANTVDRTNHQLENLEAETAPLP

C[C@@H](NC(=O)[C@@H](N)Cc1ccc(O)cc1)C(=O)NCC(=O)N(C)[C@@H](Cc1ccccc1)C(=O)NCCO [DAMGO]
activation of OPRM receptors by agonist (Eu-GTP fluorescence image): selective activation
